Results on one compound are retold here after article PMC3830123 (Biomolecules & Therapeutics, 2013).

Common to all, as to assay type: biochemical
Test [1] deals with T1, dopamine β-hydroxylase (DBH) (Homo sapiens, UniProt P09172).
T1 sequence (P09172 1-617): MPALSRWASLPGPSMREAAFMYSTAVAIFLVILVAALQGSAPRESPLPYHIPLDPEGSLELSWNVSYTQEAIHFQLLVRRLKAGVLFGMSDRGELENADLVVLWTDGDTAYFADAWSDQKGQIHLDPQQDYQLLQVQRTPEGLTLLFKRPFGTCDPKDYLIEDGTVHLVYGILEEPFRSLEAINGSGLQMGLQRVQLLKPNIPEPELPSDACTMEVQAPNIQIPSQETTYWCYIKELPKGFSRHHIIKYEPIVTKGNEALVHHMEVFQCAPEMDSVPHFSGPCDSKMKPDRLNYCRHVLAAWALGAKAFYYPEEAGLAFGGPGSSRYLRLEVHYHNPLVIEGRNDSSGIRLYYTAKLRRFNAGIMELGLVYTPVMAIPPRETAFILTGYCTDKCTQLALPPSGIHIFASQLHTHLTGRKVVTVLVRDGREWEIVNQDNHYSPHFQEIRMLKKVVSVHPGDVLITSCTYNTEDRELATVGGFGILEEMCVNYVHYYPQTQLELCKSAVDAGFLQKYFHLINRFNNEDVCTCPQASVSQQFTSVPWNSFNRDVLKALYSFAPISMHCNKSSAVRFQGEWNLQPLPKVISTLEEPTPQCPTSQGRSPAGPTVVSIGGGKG
Nature of the test: DBH assay in vitro, tyramine as substrate.

The target of test [2] is T2, Rat brain mitochondrial MAO (MAO-A) (Rattus norvegicus, UniProt P21396).
T2 sequence (P21396 1-526): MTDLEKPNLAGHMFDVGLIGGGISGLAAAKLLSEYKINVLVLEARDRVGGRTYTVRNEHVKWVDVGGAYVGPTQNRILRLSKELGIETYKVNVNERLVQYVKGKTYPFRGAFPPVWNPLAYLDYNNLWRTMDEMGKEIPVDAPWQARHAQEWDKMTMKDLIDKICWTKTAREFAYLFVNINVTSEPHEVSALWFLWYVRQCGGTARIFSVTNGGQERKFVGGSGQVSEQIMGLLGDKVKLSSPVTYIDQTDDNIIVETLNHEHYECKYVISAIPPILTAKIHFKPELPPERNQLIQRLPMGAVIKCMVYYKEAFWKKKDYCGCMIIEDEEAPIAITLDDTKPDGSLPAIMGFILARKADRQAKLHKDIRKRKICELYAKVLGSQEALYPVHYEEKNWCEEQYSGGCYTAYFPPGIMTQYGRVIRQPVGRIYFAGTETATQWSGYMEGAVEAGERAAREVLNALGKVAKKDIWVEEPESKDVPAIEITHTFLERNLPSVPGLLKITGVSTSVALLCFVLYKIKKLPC
In words: MAO-A assay in vitro, serotonin as substrate.

Test [3] concerns the target T3, Rat liver mitochondrial MAO (MAO-B) (Rattus norvegicus, UniProt P19643).
T3 sequence (P19643 1-520): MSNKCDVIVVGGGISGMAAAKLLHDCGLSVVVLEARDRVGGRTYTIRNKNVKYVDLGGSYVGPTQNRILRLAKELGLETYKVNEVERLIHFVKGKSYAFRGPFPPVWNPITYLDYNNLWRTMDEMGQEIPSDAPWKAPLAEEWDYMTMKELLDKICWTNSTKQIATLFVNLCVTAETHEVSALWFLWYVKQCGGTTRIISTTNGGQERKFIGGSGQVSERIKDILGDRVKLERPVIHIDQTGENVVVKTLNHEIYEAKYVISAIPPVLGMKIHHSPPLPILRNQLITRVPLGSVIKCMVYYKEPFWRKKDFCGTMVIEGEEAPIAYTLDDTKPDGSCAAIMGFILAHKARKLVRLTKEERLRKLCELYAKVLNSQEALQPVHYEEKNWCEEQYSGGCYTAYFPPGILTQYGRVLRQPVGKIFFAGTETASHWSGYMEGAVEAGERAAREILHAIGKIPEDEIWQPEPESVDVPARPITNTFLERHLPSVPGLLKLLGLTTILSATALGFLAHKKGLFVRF
In words: MAO-B assay in vitro, benzylamine as substrate. To be noted: IC50 values MAO-B, isolated compounds, Table 2.

By IC50 is commonly meant the point on the concentration scale where inhibition reaches its midpoint. Higher therefore signals a need for much substance. For `CC(C)=CCC/C(C)=C/Cc1c(O)ccc(C(=O)/C=C/c2ccc(O)cc2)c1O` [Xanthoangelol], the IC50 in test [1] is 516 µM; in test [2] it was 43.4 µM; in test [3], 43.9 µM.
